Consider 21 compounds from patent US6407130B1, “Carboxamide-substituted benzimidazoles having tryptase-inhibiting activity” (Boehringer Ingelheim Pharma KG, priority 1999, dated 2002).

Where a name gives a salt, the structure may show the parent alone.

The target of this experiment is T1, rh beta tryptase (Homo sapiens, UniProt Q15661).
T1 construct: purchased Promega
T1 sequence (Q15661 31-275): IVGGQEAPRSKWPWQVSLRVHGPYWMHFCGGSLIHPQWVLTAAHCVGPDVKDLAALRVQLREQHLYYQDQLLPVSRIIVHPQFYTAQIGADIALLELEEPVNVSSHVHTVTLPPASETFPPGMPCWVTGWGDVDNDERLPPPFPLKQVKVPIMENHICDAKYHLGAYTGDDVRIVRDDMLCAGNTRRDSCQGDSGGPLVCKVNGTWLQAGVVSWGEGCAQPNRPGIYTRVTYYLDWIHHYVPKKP
The experiment in a line: tryptase inhibition test (cleavage of N-p-tosyl-Gly-Pro-Lys-para-nitroaniline, p-nitroaniline measured at 405 nm). The experiment is classed as biochemical. Particulars: Tris HCl buffer pH 7.4 with calcium and heparin; substrate 0.6 mM; 5 minutes' pre-incubation, 5 minutes incubation at 37° C. Here is the method:
The compounds according to the invention are characterised by their tryptase-inhibiting activity. This ability to inhibit tryptase was investigated using the test described as follows. The measurement is carried out in Tris HCl buffer (100 mM), which additionally contains calcium (5 mM) and heparin ([…]), at pH 7.4. The standard used is rh beta tryptase which may be obtained commercially from Promega, for example. The substrate used is N-p-tosyl-Gly-Pro-Lys-para-nitroaniline in a concentration of 0.6 mM. The substrate is digested with tryptase to form p-nitroaniline which can be measured at 405 nm. Usually, an incubation period of 5 minutes and an incubation temperature of 37° C. are chosen. The enzyme activity used is 0.91 U/ml. The measurements are carried out in an Autoanalyser (Cobas Bio) made by Hofmann LaRoche. The potential inhibitory substances are used in concentrations of 10 μM in the screening, the inhibition of the tryptase being given in percent. The IC50 is determined at over 70% inhibition (concentration at which 50% of the enzyme activity is inhibited). After 5 minutes' pre-incubation of the potential inhibitory substances, the substrate is added to start the reaction, the formation of p-nitroaniline being taken as a measurement of the enzyme activity after 5 minutes, after testing the linearity.
For orientation: IC50 means the point on the concentration scale where inhibition reaches its midpoint. Regarding `Cn1c(CCc2ccc(C(=N)N)cc2)nc2cc(N(Cc3cccc4ccccc34)C(=O)CNCc3ccccc3N)ccc21` [Example 51, N-{2-[2-(4-Amidinophenyl)-ethyl]-1-methyl-benzimidazol-5-yl}-N-( - naphthylmethyl)-[2-(2-aminobenzylamino)-acetamide]-trihydrochloride], the IC50 is 25 nM.
The same measure for `Cn1c(CCc2ccc(C(=N)N)cc2)nc2cc(N(Cc3cccc4ccccc34)C(=O)CNCc3ccc(-c4ccccc4)cc3)ccc21` [Example 45, N-{2-[2-(4-Amidinophenyl)-ethyl]-1-methyl-benzimidazol-5-yl}-N-( - naphthylmethyl)-[2-(4-phenylbenzylamino)-acetamide]-dihydrochloride]: 12 nM.
For `CCN(CC)c1ccc(CNCC(=O)N(Cc2cccc3ccccc23)c2ccc3c(c2)nc(CCc2ccc(C(=N)N)cc2)n3C)cc1` [Example 54, N-{2-[2-(4-Amidinophenyl)-ethyl]-1-methyl-benzimidazol-5-yl}-N-( - naphthylmethyl)-[2-(4-diethylaminobenzylamino)-acetamide]-dihydrochloride] the value was 8.6 nM.
The same measure for `Cn1c(CCc2ccc(C(=N)N)cc2)nc2cc(N(Cc3cccc4ccccc34)C(=O)CCC3CCN(C(c4ccccc4)c4ccccc4)CC3)ccc21` [Example 64, N-{2-[2-(4-Amidinophenyl)-ethyl]-1-methyl-benzimidazol-5-yl}-N-( - naphthylmethyl)-[3-(1-diphenylmethyl-piperidin-4-yl)-propionamide]-trihydrochloride]: 25 nM; for `Cn1c(CCc2ccc(C(=N)N)cc2)nc2cc(N(Cc3cccc4ccccc34)C(=O)CNCc3ccc(N)cc3)ccc21` [Example 23, N-{2-[2-(4-Amidinophenyl)-ethyl]-1-methyl-benzimidazol-5-yl}-N-( - naphthylmethyl)-[4-aminobenzylamino-acetamide]-trihydrochloride]: 7 nM; for `Cn1c(CCc2ccc(C(=N)N)cc2)nc2cc(N(Cc3ccccc3)C(=O)CCc3cccc(C(=N)N)c3)ccc21` [Example 33, N-{2-[2-(4-Amidinophenyl)-ethyl]-1-methyl-benzimidazol-5-yl}-N-benzyl-[3-(3-amidinophenyl)-propionamide]-dihydrochloride]: 26 nM.
Regarding `Cn1c(CCc2ccc(C(=N)N)cc2)nc2cc(N(Cc3ccc(N)cc3)C(=O)CNCc3ccc(N)cc3)ccc21` [Example 73, N-{2-[2-(4-Amidinophenyl)-ethyl]-1-methyl-benzimidazol-5-yl}-N-(4-aminobenzyl)-[2-(4-aminobenzylamino)-acetamide]-dihydrochloride], the IC50 was determined as 13.1 nM.
For `CN(C(=O)CCc1ccc(C(=N)N)cc1)c1ccc2c(c1)nc(CCc1ccc(C(=N)N)cc1)n2C` [Example 1, N-{2-[2-(4-Amidinophenyl)-ethyl]-1-methyl-benzimidazol-5-yl}-N-methyl-[3-(4-amidinophenyl)-propionamide]dihydrochloride] the value was 64 nM; for `Cn1c(CCc2ccc(C(=N)N)cc2)nc2cc(N(CCC(c3ccccc3)c3ccccc3)C(=O)CCc3ccc(C(=N)N)cc3)ccc21` [Example 10, N-{2-[2-(4-Amidinophenyl)-ethyl]-1-methyl-benzimidazol-5-yl}-N-(3,3-diphenylpropyl)-[3-(4-amidinophenyl)-propionamide]-dihydrochloride], 16 nM.
Turning to `Cn1c(CCc2ccc(C(=N)N)cc2)nc2cc(N(Cc3ccccc3)C(=O)CCc3ccc(C(=N)N)cc3)ccc21` [Example 12, N-{2-[2-(4-Amidinophenyl)-ethyl]-1-methyl-benzimidazol-5-yl}-N-benzyl-[3-(4-amidinophenyl)-propionamide]-dihydrochloride], the IC50 turned out to be 30 nM.
Regarding `COc1ccc(CNCC(=O)N(Cc2ccc3ccccc3c2)c2ccc3c(c2)nc(CCc2ccc(C(=N)N)cc2)n3C)cc1` [Example 57, N-{2-[2-(4-Amidinophenyl)-ethyl]-1-methyl-benzimidazol-5-yl}-N-(β-naphthylmethyl)-[4-methoxybenzylamino-acetamide]-dihydrochloride], the IC50 came to 26 nM.
The same measure for “N-{2-[2-(4-Amidinophenyl)-ethyl]-1- methyl-benzimidazol-5-yl}-N-( - naphthyl)-[4- dimethylaminobenzylamino- acetamide]-dihydrochloride [Example 21]”: 11 nM.
The same measure for `COc1ccccc1N1CCN(CC(=O)N(Cc2cccc3ccccc23)c2ccc3c(c2)nc(CCc2ccc(C(=N)N)cc2)n3C)CC1` [Example 58, N-{2-[2-(4-Amidinophenyl)-ethyl]-1-methyl-benzimidazol-5-yl}-N-( - naphthylmethyl)-[2-(1-(2-methoxyphenyl)-piperazin-4-yl)-acetamide]-dihydrochloride]: 19 nM.
For `Cn1c(CCc2ccc(C(=N)N)cc2)nc2cc(N(Cc3ccccc3)C(=O)CCC3CCNCC3)ccc21` [Example 7] the value was 108 nM.
`Cn1c(CCc2ccc(C(=N)N)cc2)nc2cc(N(Cc3ccc4ccccc4c3)C(=O)CCc3ccc(C(=N)N)cc3)ccc21` [Example 9, N-{2-[2-(4-Amidinophenyl)-ethyl]-1- -methy-benzimidazol-5-yl}-N-β-naphthylmethyl-[3-(4-amidinophenyl)-propionamide]-dihydrochloride]: the IC50 is 24 nM.
The same measure for `Cn1c(CCc2ccc(C(=N)N)cc2)nc2cc(N(Cc3cccc4ccccc34)C(=O)CCCNC(=N)N)ccc21` [Example 30, N-{2-[2-(4-Amidinophenyl)-ethyl]-1-methyl-benzimidazol-5-yl}-N-( - naphthylmethyl)-[4-guanidino-butanoic acid amide]-dihydrochloride]: 32 nM.
For `Cn1c(CCc2ccc(C(=N)N)cc2)nc2cc(N(Cc3ccccc3)C(=O)CCCNC(=N)N)ccc21` [Example 39, N-{2-[2-(4-Amidinophenyl)-ethyl]-1-methyl-benzimidazol-5-yl}-N-benzyl-[4-guanidino-butanoic acid amide]-dihydrochloride] the value was 77 nM; for `Cn1c(CCc2ccc(C(=N)N)cc2)nc2cc(N(Cc3cccc4ccccc34)C(=O)CN3CCC(Cc4ccccc4)CC3)ccc21` [Example 70, N-{2-[2-(4-Amidinophenyl)-ethyl]-1-methyl-benzimidazol-5-yl}-N-( - naphthylmethyl)-[2-(4-benzyl-4-piperidin-1-yl)-acetamide]-dihydro-chloride], 3.9 nM.
On to `Cn1c(CCc2ccc(C(=N)N)cc2)nc2cc(N(Cc3ccc4ccccc4c3)C(=O)CCc3ccc(C(=N)N)cc3)ccc21` [Example 11, N-{2-[2-(4-Amidinophenyl)-ethyl]-1-methyl-benzimidazol-5-yl}-N-β-naphthylmethyl-[3-(4-amidinophenyl)-propionamide]-dihydrochloride], for which the IC50 stood at 15 nM.
For `CN(C)CCNCC(=O)N(Cc1cccc2ccccc12)c1ccc2c(c1)nc(CCc1ccc(C(=N)N)cc1)n2C` [Example 76] the value was 22 nM; for `Cn1c(CCc2ccc(C(=N)N)cc2)nc2cc(N(Cc3cccc4ccccc34)C(=O)CNCc3cccc(C(=N)N)c3)ccc21` [Example 46, N-{2-[2-(4-Amidinophenyl)-ethyl]-1-methyl-benzimidazol-5-yl}-N-( - naphthylmethyl)-[2-(3-amidinobenzylamino)-acetamide]-trihydrochloride], 27 nM.
